Test results: patent publication US20200085789A1, “USE OF A PROTEASOME INHIBITOR FOR THE TREATMENT OF CENTRAL NERVOUS SYSTEM (CNS) CANCERS” (Celgene International II Sàrl, priority 2017, published 2020)

Columns and labels:
[1] = test system: human glioblastoma (GBM) cell lines; settings: either of two GBM lines; cited from earlier work
[2] = test system: proteasome (CT-L, T-L and C-L activity); test: Blood proteasome inhibition (CT-L, T-L, C-L activity in packed whole blood and PBMC lysates); type: in vivo, human; settings: for % C-L inhibition / % CT-L inhibition / % T-L inhibition: PWB, post-Marizomib infusion (peak effect)
Source text: The drugs were infused on 28-Day Cycles.
Change in proteasome activities in packed whole blood (PWB) lysates and peripheral blood mononuclear cell (PBMC) lysates, comparing pre-drug and post drug levels on Days 1, 8, and 15 of Cycle 1; Days 1 and 15 of each Cycle thereafter; and at the End-of Treatment Visit.
The laboratory correlates include assessment of the percentage inhibition of proteasome function (evaluated by measurement of CT-L, T-L and C-L activity in blood isolates such as whole blood and PBMC lysates.
PD analysis will include change in proteasome activities (whole blood lysates and PBMC lysates) by comparing pre-drug and post drug levels on Days 1, 8, and 15 (i.e., for each dose) of Cycle 1 and Days 1 and 15 (i.e., for the first and last doses) of each cycle thereafter.

C[C@@]12OC(=O)[C@]1([C@@H](O)[C@@H]1C=CCCC1)NC(=O)[C@@H]2CCCl [MRZ, marizomib]
decrease of matrix invasion [1]: approximately 90% | % C-L inhibition ([2]; 0.7 mg/m^2): 50.4 ± 9.1 (3) % | % CT-L inhibition ([2]; 0.7 mg/m^2): 100 ± 0 (3) % | % T-L inhibition ([2]; 0.7 mg/m^2): 77.3 ± 10.5 (3) % | % C-L inhibition ([2]; 0.8 mg/m^2): 51.9 ± 8.3 (3) % | % CT-L inhibition ([2]; 0.8 mg/m^2): 100 ± 0 (3) % | % T-L inhibition ([2]; 0.8 mg/m^2): 69.3 ± 7.2 (3) % | Proteasome inhibition on chymotrypsin-like (CT-L) domains ([2]; cohorts 1 and 2): maximal | trypsin-like (T-L) and caspase-like (C-L) activity ([2]; cohorts 1 vs 2): Dose-dependent inhibition
